pIC50: −log10 of the molar value. Where two headings read alike, the source gives them in different places. Ends that are not written are not given here.
Target: T1, β-galactosidase (β-Gal) (Escherichia coli, UniProt P00722)
T1 construct: purchased Sigma (St. Louis, MO)
Assay: biochemical
Format: biochemical
Procedure: Solution-based enzyme assays were performed on SpectraMax M5 96 well plate readers (Molecular Device, Sunnyvale, CA) as described previously.[13] Briefly, peptides were first incubated with enzyme for 20 minutes, then the substrate solution was added into the wells to measure the enzyme activity, including at least three replicates per peptide. The β-gal catalyzed hydrolysis of RBG was fluorescently monitored at 590 nm (resorufin) with the excitation at 540 nm. The velocity of the reaction was determined by the initial velocity of the linear reaction. The IC50 of each inhibitor was determined by fitting the concentration vs. inhibition curve to the function ‘Fit LogIC50’ as defined in the program GraphPad Prism 7 using the fitting equation “Y = Bottom+(Top-Bottom)/(1+10^(X-LogIC50))”.
The enzyme inhibition was also quantitatively characterized using the inhibition percentage that was calculated using the following equation: Inhibition Percentage = (Activityuninhibited− Activityinhibited)/ Activityuninhibited× 100% […]
Fluorescein di-β-D-galactopyranoside (FDG), resorufin β-D-galactopyranoside (RBG) and Alexa Fluor 647 (Alexa 647) were purchased from Invitrogen (Eugene, OR). Phenylethyl β-D-thiogalactoside (PETG), β-galactosidase (β-Gal), phosphate buffered saline (PBS) and tris buffered saline (TBS) were obtained from Sigma (St. Louis, MO). A 4 mg/mL stock solution of β-Gal was prepared in 10 mM potassium phosphate buffer with 0.1 mM MgCl2 at pH 7.4. A 2 mg/mL stock solution of peptide was first prepared in pure water, and then diluted in phosphate buffer to the desired concentration. Custom peptides were purchased from Sigma.

T1 sequence (P00722 2-1024): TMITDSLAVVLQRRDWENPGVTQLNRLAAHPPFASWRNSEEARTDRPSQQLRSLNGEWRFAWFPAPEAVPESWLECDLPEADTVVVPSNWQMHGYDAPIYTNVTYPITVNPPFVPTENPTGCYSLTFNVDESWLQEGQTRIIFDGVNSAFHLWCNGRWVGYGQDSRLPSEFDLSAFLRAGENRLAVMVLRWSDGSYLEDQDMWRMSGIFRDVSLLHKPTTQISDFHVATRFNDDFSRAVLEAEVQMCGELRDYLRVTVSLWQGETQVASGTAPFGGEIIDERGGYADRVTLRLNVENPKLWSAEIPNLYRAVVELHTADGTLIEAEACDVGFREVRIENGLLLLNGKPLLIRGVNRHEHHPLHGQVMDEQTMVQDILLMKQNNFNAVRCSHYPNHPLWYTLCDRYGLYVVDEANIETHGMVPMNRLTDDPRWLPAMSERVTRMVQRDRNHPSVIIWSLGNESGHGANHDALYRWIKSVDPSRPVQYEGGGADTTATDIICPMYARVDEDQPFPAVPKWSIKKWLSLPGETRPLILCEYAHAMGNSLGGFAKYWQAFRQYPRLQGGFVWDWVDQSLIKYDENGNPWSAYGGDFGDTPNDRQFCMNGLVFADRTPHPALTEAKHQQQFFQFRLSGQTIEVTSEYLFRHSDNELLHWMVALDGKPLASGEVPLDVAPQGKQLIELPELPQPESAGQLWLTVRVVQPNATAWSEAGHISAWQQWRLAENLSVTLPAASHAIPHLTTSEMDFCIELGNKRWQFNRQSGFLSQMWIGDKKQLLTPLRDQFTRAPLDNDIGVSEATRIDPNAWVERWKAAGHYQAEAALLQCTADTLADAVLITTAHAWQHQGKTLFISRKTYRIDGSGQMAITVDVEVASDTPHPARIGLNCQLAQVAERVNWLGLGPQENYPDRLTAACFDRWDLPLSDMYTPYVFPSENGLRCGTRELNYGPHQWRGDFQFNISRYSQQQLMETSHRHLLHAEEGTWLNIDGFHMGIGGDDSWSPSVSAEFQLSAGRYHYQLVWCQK

Molecule | pIC50 | also measured
PASMFSYFKKQGYYYKLGSC [PEP-2] | ~4.89 | 
RVFKRYKRWLHVSRYYFGSC [PEP-1] | ~5.80 | 
FKRYKRWGSC [nPEP-1] | ~5.40 | 
FKRYRRWGSC [nPEP-1-45] | ~5.60 | 
OC[C@H]1O[C@@H](SCCc2ccccc2)[C@H](O)[C@@H](O)[C@@H]1O [PETG, phenylethyl β-D-thiogalactoside, reference compound] |  | pIC50 (Fig 1, 100 μM RBG, β-Gal 150 μg/L, 25°C, three replicates, lead peptides previously selected from microarray [13], read-out: IC50 of peptide inhibition of β-Gal): ~4.46
KKQGYYYKLGSC [shorter C-terminus motif of PEP-2 from truncation analysis] |  | normalized inhibition of β-Gal, truncation scan of PEP-2 (Fig 3B, normalized to the inhibition percentage value of PEP-2 at 50 μM, three replicates): inhibited β-Gal

Reference: article PMC5557489, “Computational and experimental analysis of short peptide motifs for enzyme inhibition” (PLoS ONE, 2017)
